Assays:
MER kinase = MER kinase (Homo sapiens (Human), UniProt Q12866); test: Assay of small molecular compounds for inhibiting the activity of MER kinase (LANCE TR-FRET); assay type: biochemical
Procedure, shortened: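 LANCE TR-FRET readout of ULight-poly GT phosphorylation by MER kinase; compound final range 0.042-2500 nM, 3-fold steps, 5 min enzyme preincubation. Reaction 60 min at room temperature in the dark with substrate/ATP (4× at 200 nM/20 μM), 1% DMSO, then stopped and developed 60 min; IC50 by curve fit.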

EBC1 cells = test: Assay for inhibiting the proliferation of EBC1 cells (CCK-8); assay type: cell-based; conditions: Homo sapiens, EBC-1
Procedure, shortened: (§1)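 Cells seeded in 96-well plates overnight, then exposed 72 h to 9 three-fold dilutions of compound (0.25% DMSO final). Viability by CCK-8 (1-2 h at 37° C., OD 450 nm), survival normalized to untreated and cell-free blanks; IC50 by curve fitting.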

c-MET kinase = c-MET kinase (Homo sapiens (Human), UniProt P08581); test: Assay of small molecular compounds for inhibiting the activity of c-MET kinase (LANCE TR-FRET); assay type: biochemical; conditions: read-out: CMET IC50
Sequence of c-MET kinase (P08581 25-1390): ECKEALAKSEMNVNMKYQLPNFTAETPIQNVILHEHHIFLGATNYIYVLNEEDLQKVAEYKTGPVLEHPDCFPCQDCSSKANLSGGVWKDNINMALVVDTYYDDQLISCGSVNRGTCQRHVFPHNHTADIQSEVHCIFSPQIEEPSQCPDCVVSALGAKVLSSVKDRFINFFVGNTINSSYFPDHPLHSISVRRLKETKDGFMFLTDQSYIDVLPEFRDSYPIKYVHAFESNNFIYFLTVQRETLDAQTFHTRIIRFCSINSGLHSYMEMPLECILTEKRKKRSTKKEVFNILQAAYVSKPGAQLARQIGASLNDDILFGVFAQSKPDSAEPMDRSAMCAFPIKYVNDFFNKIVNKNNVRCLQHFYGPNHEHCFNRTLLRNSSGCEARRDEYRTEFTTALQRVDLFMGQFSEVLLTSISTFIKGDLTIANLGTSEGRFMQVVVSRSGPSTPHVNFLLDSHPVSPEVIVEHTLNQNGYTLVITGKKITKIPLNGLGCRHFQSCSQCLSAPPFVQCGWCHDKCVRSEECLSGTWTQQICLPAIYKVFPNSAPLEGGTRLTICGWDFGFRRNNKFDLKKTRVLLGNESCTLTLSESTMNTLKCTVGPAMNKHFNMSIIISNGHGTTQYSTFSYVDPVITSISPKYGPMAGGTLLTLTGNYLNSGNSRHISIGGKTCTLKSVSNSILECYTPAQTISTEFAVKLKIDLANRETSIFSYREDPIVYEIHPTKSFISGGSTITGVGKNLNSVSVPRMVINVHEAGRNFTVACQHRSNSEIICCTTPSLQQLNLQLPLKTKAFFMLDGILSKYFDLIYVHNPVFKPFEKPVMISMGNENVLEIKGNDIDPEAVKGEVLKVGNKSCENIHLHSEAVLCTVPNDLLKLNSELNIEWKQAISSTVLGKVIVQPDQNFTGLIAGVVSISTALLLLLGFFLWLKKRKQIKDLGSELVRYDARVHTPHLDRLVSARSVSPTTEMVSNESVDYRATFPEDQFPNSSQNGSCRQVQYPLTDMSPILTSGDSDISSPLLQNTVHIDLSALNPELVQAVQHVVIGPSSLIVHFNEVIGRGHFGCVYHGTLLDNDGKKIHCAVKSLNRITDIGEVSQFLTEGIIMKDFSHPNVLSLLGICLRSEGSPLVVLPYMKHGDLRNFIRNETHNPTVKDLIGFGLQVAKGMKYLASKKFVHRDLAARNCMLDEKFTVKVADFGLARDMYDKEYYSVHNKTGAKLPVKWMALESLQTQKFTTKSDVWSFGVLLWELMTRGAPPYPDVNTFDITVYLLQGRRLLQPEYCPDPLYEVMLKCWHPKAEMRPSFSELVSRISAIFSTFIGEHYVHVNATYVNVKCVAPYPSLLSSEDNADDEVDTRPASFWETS
Procedure, shortened: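 Eleven final concentrations from 2500 nM down to 0.042 nM, in 4% DMSO, were tested against human c-MET (2× stock 2 nM), with compound and enzyme premixed for 5 min. The phosphorylation reaction used 4× stock of 400 nM ULight-JAK-1 peptide and 40 μM ATP for 60 min at room temperature, then stop and detection steps. TR-FRET percent inhibition against positive and negative controls gave the IC50.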

[1] = system: Ba/F3 LMNA-NTRK1-G595R cells; test: Assay for inhibiting the proliferation of Ba/F3 LMNA-NTRK1-G595R cells (CCK-8); assay type: cell-based; conditions: Mus musculus, BaF3
Procedure, shortened: as §1

Sequence of MER kinase (Q12866 21-999): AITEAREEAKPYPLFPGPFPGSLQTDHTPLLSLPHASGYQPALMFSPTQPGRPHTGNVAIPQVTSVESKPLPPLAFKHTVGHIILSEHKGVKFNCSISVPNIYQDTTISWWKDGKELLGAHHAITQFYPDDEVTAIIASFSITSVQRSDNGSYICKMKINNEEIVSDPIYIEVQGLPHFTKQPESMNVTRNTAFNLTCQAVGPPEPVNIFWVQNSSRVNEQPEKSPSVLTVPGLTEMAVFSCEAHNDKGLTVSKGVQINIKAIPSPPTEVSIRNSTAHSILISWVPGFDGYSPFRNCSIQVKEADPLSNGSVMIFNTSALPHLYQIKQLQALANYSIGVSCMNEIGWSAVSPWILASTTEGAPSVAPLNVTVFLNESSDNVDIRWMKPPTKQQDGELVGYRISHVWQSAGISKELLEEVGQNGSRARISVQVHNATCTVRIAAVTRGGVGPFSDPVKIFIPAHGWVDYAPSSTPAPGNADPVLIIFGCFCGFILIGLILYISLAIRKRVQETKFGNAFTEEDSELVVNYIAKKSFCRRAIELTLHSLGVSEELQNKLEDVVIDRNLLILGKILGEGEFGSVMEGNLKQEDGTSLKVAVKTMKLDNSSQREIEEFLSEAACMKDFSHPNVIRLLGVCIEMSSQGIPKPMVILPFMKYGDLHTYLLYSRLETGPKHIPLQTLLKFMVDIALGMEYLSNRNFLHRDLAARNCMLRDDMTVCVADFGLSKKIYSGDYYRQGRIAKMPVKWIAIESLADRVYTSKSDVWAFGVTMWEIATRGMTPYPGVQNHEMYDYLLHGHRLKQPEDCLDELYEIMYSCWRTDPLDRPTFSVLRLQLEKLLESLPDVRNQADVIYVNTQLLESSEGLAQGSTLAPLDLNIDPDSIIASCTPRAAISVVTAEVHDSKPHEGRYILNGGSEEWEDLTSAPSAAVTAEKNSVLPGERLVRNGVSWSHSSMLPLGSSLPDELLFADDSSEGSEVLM

Row | SMILES | IC50 (MER kinase) | IC50 (EBC1 cells) | IC50 (c-MET kinase) | IC50 [1]
1 | Cn1cc(C(=O)Nc2ccc(Oc3ccnc4cc(OCCCN5CCCCC5)c5c(c34)OCCO5)c(F)c2)c(=O)n(-c2ccc(F)cc2)c1=O [Example 39, N-(3-fluoro-4-((5-(3-(piperidin-1-yl)propoxy)-2,3-dihydro-[1,4]dioxino[2,3-f]quinolin-10-yl)oxy)phenyl)-3-(4-fluorophenyl)-1-methyl-2,4-dioxo-1,2,3,4-tetrahydropyrimidine-5-carboxamide] | ≤ 50 nM | ≤ 50 nM | ≤ 50 nM | 50 to 200 nM
2 | CCn1cc(C(=O)Nc2ccc(Oc3ccnc4cc(OCCCN5CCCCC5)c5c(c34)OCCO5)c(F)c2)c(=O)n(-c2ccc(F)cc2)c1=O [Example 41, N-(3-fluoro-4-((5-(3-(piperidin-1-yl)propoxy)-2,3-dihydro-[1,4]dioxino[2,3-f]quinolin-10-yl)oxy)phenyl)-3-(4-fluorophenyl)-1-ethyl-2,4-dioxo-1,2,3,4-tetrahydropyrimidine-5-carboxamide] | ≤ 50 nM | ≤ 50 nM | ≤ 50 nM | 50 to 200 nM
3 | COCCOc1cc2nccc(Oc3ccc(NC(=O)c4cn(C)c(=O)n(-c5ccc(F)cc5)c4=O)cc3F)c2c2c1OCCO2 [Example 42, N-(3-fluoro-4-((5-(2-methoxyethoxy)-2,3-dihydro-[1,4]dioxino[2,3-f]quinolin-10-yl)oxy)phenyl)-3-(4-fluorophenyl)-1-methyl-2,4-dioxo-1,2,3,4-tetrahydropyrimidine-5-carboxamide] | ≤ 50 nM | ≤ 50 nM | ≤ 50 nM | 50 to 200 nM
4 | COc1cc2nccc(Oc3cc(Cl)c(NC(=O)c4cn(C)c(=O)n(-c5ccc(F)cc5)c4=O)cc3F)c2c2c1OCCO2 [Example 116, N-(2-chloro-5-fluoro-4-((5-methoxy-2,3-dihydro-[1,4]dioxino[2,3-f]quinolin-10-yl)oxy)phenyl)-3-(4-fluorophenyl)-1-methyl-2,4-dioxo-1,2,3,4-tetrahydropyrimidine-5-carboxamide] | ≤ 50 nM | ≤ 50 nM | ≤ 50 nM | ≤ 50 nM
